Experimental data published in patent publication US20060252800A1, “Anti-leishmania agent” (priority 2003, published 2006).

Test system: Leishmania (L. major)
Test: Leishmania protozoa proliferation inhibition assay
Format: cell-based
Conditions: for OD level (number of viable Leishmania protozoa): 48 hours at 27° C., absorbance 450 nm minus 630 nm; for IC50: calculated from the graphs of FIGS. 1 to 4 (concentration vs number of viable leishmania protozoa), read-out: Concentration inhibiting 50% leishmania proliferation
Procedure: After dissolving each of the obtained compounds in dimethylsulfoxide (hereinafter referred to as DMSO), the resultant was diluted by 9 steps in Medium 199 medium (Invitrogen) to the indicated concentration, filtrated with a membrane filter, and each of the filtration was made as a sample solution. […] By keeping the solution at 27° C., incubation was performed under 5% CO2, for 48 hours. Then, TetraColor ONE (tradename: Seikagaku Corporation) reagent was added thereto and further incubated for 6 hours. Then, the absorbance at a wavelength of 450 nm was measured for the 96-well microtiter plate with a microplate reader, the wave length of 630 nm was made as reference wave length, and in order to exclude background effect, the absorbance at 630 nm was excluded from the one at 450 nm, and the OD level was calculated as a level to indicate the number of viable Leishmania protozoa. The assay was performed by three wells at a time for each concentration of each sample, and the mean level was made as OD level. […] Amphotericin B was used as positive control. […] Inhibiting effect against […] protozoa for each sample was similar or more compared with that of Amtephotericin B.

[1] = Table 3, sample concentration 0.001 mg/ml
[2] = Table 3, sample concentration 0.002165 mg/ml
[3] = Table 3, sample concentration 0.0072171 mg/ml
[4] = Table 3, sample concentration 0.02406 mg/ml
[5] = Table 3, sample concentration 0.08019 mg/ml
[6] = Table 3, sample concentration 0.2673 mg/ml
[7] = Table 3, sample concentration 0.891 mg/ml
[8] = Table 3, sample concentration 2.97 mg/ml
[9] = Table 3, sample concentration 9.9 mg/ml
[10] = Table 3, sample concentration 33 mg/ml
[11] = Table 2, sample concentration 0.0001 mg/ml
[12] = Table 2, sample concentration 0.0007 mg/ml
[13] = Table 2, sample concentration 0.002 mg/ml
[14] = Table 2, sample concentration 0.008 mg/ml
[15] = Table 2, sample concentration 0.025 mg/ml
[16] = Table 2, sample concentration 0.084 mg/ml
[17] = Table 2, sample concentration 0.279 mg/ml
[18] = Table 2, sample concentration 0.93 mg/ml
[19] = Table 2, sample concentration 3.1 mg/ml
[20] = Table 2, sample concentration 2E−04 mg/ml
[21] = Table 1, sample concentration 0.001 mg/ml
[22] = Table 1, sample concentration 0.016384 mg/ml
[23] = Table 1, sample concentration 0.04096 mg/ml
[24] = Table 1, sample concentration 0.1024 mg/ml
[25] = Table 1, sample concentration 0.256 mg/ml
[26] = Table 1, sample concentration 0.64 mg/ml
[27] = Table 1, sample concentration 1.6 mg/ml
[28] = Table 1, sample concentration 4 mg/ml
[29] = Table 1, sample concentration 10 mg/ml
[30] = Table 1, sample concentration 25 mg/ml, mean of three wells

CCn1c(=Cc2cccc[n+]2C)sc(=C2Sc3ccc(Cl)cc3N2C)c1=O.Cc1ccc(S(=O)(=O)[O-])cc1 [IV (f), 2-[{5-(5-chloro-3-methyl-2(3H)-benzothiazolylidene)-4-oxo-3-ethyl-2-thiazolidinylidene}methyl]-1-methylpyridinium=p-toluenesulfonate]
OD level (number of viable Leishmania protozoa) [1]: 0.352 | OD level (number of viable Leishmania protozoa) [2]: 0.388 | OD level (number of viable Leishmania protozoa) [3]: 0.369 | OD level (number of viable Leishmania protozoa) [4]: 0.384 | OD level (number of viable Leishmania protozoa) [5]: 0.428 | OD level (number of viable Leishmania protozoa) [6]: 0.214 | OD level (number of viable Leishmania protozoa) [7]: 0.116 | OD level (number of viable Leishmania protozoa) [8]: 0.081 | OD level (number of viable Leishmania protozoa) [9]: 0.064 | OD level (number of viable Leishmania protozoa) [10]: 0.038 | IC50: 0.54 µM

CCn1c(=Cc2sc3ccccc3[n+]2C)sc(=C2Sc3ccc4ccccc4c3N2C)c1=O.Cc1ccc(S(=O)(=O)[O-])cc1 [IV (m), 2-[{5-(3-methyl-2(3H)-benzobenzo[e]thiazolilidene)-4-oxo-3-ethyl-2-thiazolidinylidene}methyl]-1-methylbenzothiazolium=p-toluenesulfonate]
OD level (number of viable Leishmania protozoa) [1]: 0.340 | OD level (number of viable Leishmania protozoa) [2]: 0.344 | OD level (number of viable Leishmania protozoa) [3]: 0.342 | OD level (number of viable Leishmania protozoa) [4]: 0.354 | OD level (number of viable Leishmania protozoa) [5]: 0.379 | OD level (number of viable Leishmania protozoa) [6]: 0.422 | OD level (number of viable Leishmania protozoa) [7]: 0.385 | OD level (number of viable Leishmania protozoa) [8]: 0.149 | OD level (number of viable Leishmania protozoa) [9]: 0.033 | OD level (number of viable Leishmania protozoa) [10]: 0.027 | IC50: 2.7 µM

CN1/C(=c2\s/c(=C\c3cccc[n+]3C)n(Cc3ccccc3)c2=O)Sc2ccccc21.Cc1ccc(S(=O)(=O)[O-])cc1 [I (a), 2-[{5-(3-methyl-2(3H)-benzothiazolylidene)-4-oxo-3-benzyl-2-thiazolidinylidene}methyl]-1-methylpyridinium=p-toluenesulfonate]
OD level (number of viable Leishmania protozoa) [11]: 0.356 | OD level (number of viable Leishmania protozoa) [12]: 0.361 | OD level (number of viable Leishmania protozoa) [13]: 0.383 | OD level (number of viable Leishmania protozoa) [14]: 0.469 | OD level (number of viable Leishmania protozoa) [15]: 0.172 | OD level (number of viable Leishmania protozoa) [16]: 0.088 | OD level (number of viable Leishmania protozoa) [17]: 0.043 | OD level (number of viable Leishmania protozoa) [18]: 0.034 | OD level (number of viable Leishmania protozoa) [19]: 0.035 | OD level (number of viable Leishmania protozoa) [20]: 0.356 | IC50: 0.41 µM

CCn1c(=Cc2ccc3ccccc3[n+]2C)sc(=C2Sc3ccccc3N2C)c1=O.[I-] [IV (c), 2-[{5-(3-methyl-2(3H)-benzothiazolylidene)-4-oxo-3-ethyl-2-thiazolidinylidene}methyl]-1-methylquinolinium=iodide]
OD level (number of viable Leishmania protozoa) [21]: 0.472 | OD level (number of viable Leishmania protozoa) [22]: 0.470 | OD level (number of viable Leishmania protozoa) [23]: 0.474 | OD level (number of viable Leishmania protozoa) [24]: 0.496 | OD level (number of viable Leishmania protozoa) [25]: 0.398 | OD level (number of viable Leishmania protozoa) [26]: 0.158 | OD level (number of viable Leishmania protozoa) [27]: 0.117 | OD level (number of viable Leishmania protozoa) [28]: 0.069 | OD level (number of viable Leishmania protozoa) [29]: 0.032 | OD level (number of viable Leishmania protozoa) [30]: 0.032 | IC50: 0.82 µM

C=CCn1c(=Cc2cccc[n+]2C)sc(=C2Sc3ccc(Cl)cc3N2C)c1=O.Cc1ccc(S(=O)(=O)[O-])cc1 [IV (h), 2-[{5-(5-chloro-3-methyl-2(3H)-benzothiazolylidene)-4-oxo-3-(2-propenyl)-2-thiazolidinylidene}methyl]-1-methylpyridinium=p-toluenesulfonate]
OD level (number of viable Leishmania protozoa) [1]: 0.352 | OD level (number of viable Leishmania protozoa) [2]: 0.368 | OD level (number of viable Leishmania protozoa) [3]: 0.375 | OD level (number of viable Leishmania protozoa) [4]: 0.423 | OD level (number of viable Leishmania protozoa) [5]: 0.277 | OD level (number of viable Leishmania protozoa) [6]: 0.140 | OD level (number of viable Leishmania protozoa) [7]: 0.079 | OD level (number of viable Leishmania protozoa) [8]: 0.039 | OD level (number of viable Leishmania protozoa) [9]: 0.029 | OD level (number of viable Leishmania protozoa) [10]: 0.034 | IC50: 0.27 µM

CCn1c(=Cc2cc[n+](C)c3ccccc23)sc(=C2Sc3ccccc3N2C)c1=O.Cc1ccc(S(=O)(=O)[O-])cc1 [IV (b), 4-[{5-(3-methyl-2(3H)-benzothiazolylidene)-4-oxo-3-ethyl-2-thiazolidinylidene}methyl]-1-methylquinolium=p-toluene sulfonate]
OD level (number of viable Leishmania protozoa) [11]: 0.361 | OD level (number of viable Leishmania protozoa) [12]: 0.354 | OD level (number of viable Leishmania protozoa) [13]: 0.362 | OD level (number of viable Leishmania protozoa) [14]: 0.380 | OD level (number of viable Leishmania protozoa) [15]: 0.409 | OD level (number of viable Leishmania protozoa) [16]: 0.211 | OD level (number of viable Leishmania protozoa) [17]: 0.102 | OD level (number of viable Leishmania protozoa) [18]: 0.044 | OD level (number of viable Leishmania protozoa) [19]: 0.037 | OD level (number of viable Leishmania protozoa) [20]: 0.351

C=CCn1c(=Cc2cccc[n+]2C)sc(=C2Sc3ccccc3N2C)c1=O.Cc1ccc(S(=O)(=O)[O-])cc1 [IV (a), 2-[{5-(3-methyl-2(3H)-benzothiazolylidene)-4-oxo-3-(2-propenyl)-2-thiazolidinylidene}methyl]-1-methylpyridinium=p-toluenesulfonate]
OD level (number of viable Leishmania protozoa) [21]: 0.470 | OD level (number of viable Leishmania protozoa) [22]: 0.541 | OD level (number of viable Leishmania protozoa) [23]: 0.488 | OD level (number of viable Leishmania protozoa) [24]: 0.385 | OD level (number of viable Leishmania protozoa) [25]: 0.157 | OD level (number of viable Leishmania protozoa) [26]: 0.095 | OD level (number of viable Leishmania protozoa) [27]: 0.047 | OD level (number of viable Leishmania protozoa) [28]: 0.035 | OD level (number of viable Leishmania protozoa) [29]: 0.031 | OD level (number of viable Leishmania protozoa) [30]: 0.032 | IC50: 0.32 µM
